This is an account of results in ChEMBL document CHEMBL1132337, “Chiral resolution and stereospecificity of 6-phenyl-4-phenylethynyl- 1,4-dihydropyridines as selective A(3) adenosine receptor antagonists” (J Med Chem, 1999).

The test deals with Adenosine receptor A2a (Rattus norvegicus) (UniProt P30543). In words: Displacement of [3H]CGS-21680 from Adenosine A2A receptor of rat striatal membrane at 10e-4 M. (Displacement assays read how much labelled ligand stays bound in the presence of the test substance.)
Chain of Adenosine receptor A2a (Rattus norvegicus) (P30543 whole entry): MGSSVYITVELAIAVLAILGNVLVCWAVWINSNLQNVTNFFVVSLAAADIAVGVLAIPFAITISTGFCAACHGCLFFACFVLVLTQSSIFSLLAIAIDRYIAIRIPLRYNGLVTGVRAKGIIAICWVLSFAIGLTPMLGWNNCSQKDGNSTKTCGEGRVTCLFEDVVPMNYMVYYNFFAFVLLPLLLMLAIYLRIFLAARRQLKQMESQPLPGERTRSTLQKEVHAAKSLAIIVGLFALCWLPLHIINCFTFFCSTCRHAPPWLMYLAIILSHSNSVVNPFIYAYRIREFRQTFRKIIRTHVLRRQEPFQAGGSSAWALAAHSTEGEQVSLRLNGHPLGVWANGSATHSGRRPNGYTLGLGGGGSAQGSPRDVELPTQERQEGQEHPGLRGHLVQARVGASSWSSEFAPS
In turn, `CCOC(=O)C1=C(c2ccccc2)N=C(C)/C(=C(/O)OC[C@H]2COC(C)(C)O2)[C@@H]1C#Cc1ccccc1` showed an inhibition of 10%.

Consider `CCOC(=O)C1=C(c2ccccc2)N=C(C)/C(=C(/O)OC[C@H](O)CO)[C@H]1C#Cc1ccccc1`, for which the inhibition turned out to be 10%. Then `CCO/C(O)=C1\C(C)=NC(c2ccccc2)=C(C(=O)OCc2ccccc2)[C@H]1C#Cc1ccccc1`, with 14%; and `CCOC(=O)C1=C(c2ccccc2)N=C(C)/C(=C(/O)OC[C@H]2COC(C)(C)O2)[C@H]1C#Cc1ccccc1`, with 10%.

`CCO/C(O)=C1\C(C)=NC(c2ccccc2)=C(C(=O)OCc2ccccc2)[C@@H]1C#Cc1ccccc1` showed an inhibition of 11%. Regarding `CCO/C(O)=C1\C(C)=NC(c2ccccc2)=C(C(=O)OCc2ccccc2)C1C#Cc1ccccc1` (stereo unspecified), the inhibition worked out at 10%.

One may read the inhibition as the change of the read-out against control, counted positive when it falls. Read a high inhibition as a strong effect.
